Entries after “also recorded” stand apart in the source; their conditions may differ.
Assays:
LH plasma levels = assay: In vivo effect of NKB antagonists on LH plasma levels (ELISA); design: species or system adult male tilapia (Oreochromis niloticus)
Experimental: (§1) The levels of FSH, LH and GH in the plasma were measured by specific competitive enzyme-linked immunosorbent assay (ELISA), developed for tilapia, based on recombinant gonadotropins or GH that were created by using the yeast Pichia pastoris. For the ELISAs, we used primary antibody antisera against GH [51], FSHβ [52], or against rtLHβ [53], and rtFSHβα [52], rtLHβ [53] or tiGH for the standard curves. Sensitivity for the plasma measurements were 15.84 pg/mL for LH, 0.24 pg/mL for FSH and 30.0 pg/mL for GH. The inter-assay coefficient of variation (CV) was 14.8, 12.5, and 13.0%, while intra-assay CV was 7.2, 8.0, and 8.0% for LH, FSH and GH, respectively.
(§2) Adult male tilapia (BW 89.29 ± 32.93 g; gonado-somatic index (GSI) 0.24% ± 0.40%) were injected IP (intraperitoneal) with NKB antagonists, SB-222200 or Osanetant (100 µg/kg BW), and after 0.5 h, a second injection of sGnRHa (10 µg/kg BW) was added. Control groups were injected with sGnRHa ([DAla^6, Pro^9-Net]-mammalian GnRH; Bachem, Budendorf, Switzerland) 10 µg/kg BW) as a positive control. The fish were bled from the caudal blood vessels into heparinized syringes 0, 0.5, 2, 6 and 24 h after injection. This time course is according to standard protocols used previously to test the effect of GnRH on circulating levels of LH, FSH, and GH in tilapia. Blood samples were collected from the caudal vasculature and centrifuged (3200 rpm for 30 min at 4 °C) (Centrifuge: Fresco 17, Rotor: 75003424, Thermo Scientific™, Langenselbold Germany) to obtain plasma samples, which were stored at −20 °C until assayed. Three independent experiments were carried out for the in-vivo studies.

FSH plasma levels = assay: In vivo effect of NKB antagonists on FSH plasma levels (ELISA); design: species or system adult male tilapia (Oreochromis niloticus); conditions: antagonist 100 µg/kg BW IP, sGnRHa 10 µg/kg BW after 0.5 h; n = 10
Experimental: as §1
as §2, with “Blood samples were collected from the caudal vasculature and centrifuged (3200 rpm for 30 min at 4 °C) (Centrifuge: Fresco 17, Rotor: 75003424, Thermo Scientific™, Langenselbold Germany) to obtain plasma samples, which were stored at −20 °C until assayed. Three independent experiments were carried out for the in-vivo studies.” left out

11-KT plasma levels = assay: 14-day in vivo experiment: plasma 11-KT (ELISA); design: species or system adult male tilapia (Oreochromis niloticus); conditions: 500 µg/kg BW IP every 48 h, 14 days; n = 6
Experimental: (§3) Adult male tilapia (BW 87.29 ± 26.1 g; gonado-somatic index (GSI 0.21% ± 0.36%) were IP injected with SB-222200 (500 µg/kg BW in 25% DMSO) and saline with 25% DMSO as a control every 48 h during a 14-day period. Blood was sampled every 48 h. Milt volume was collected from 6 fish from each group 7 and 14 days after the first injection, generally according to [55].
11-KT levels were determined by ELISA, according to [52], using acetylcholine-esterase as a label. The anti- 11-KT was donated by Dr. D.E. Kime (Sheffield, UK). All samples were analyzed in duplicate, and for each ELISA plate, a separate standard curve was run. The lower limits of detection were 0.93 for 11-KT. The intra- and inter-assay coefficients of variance were less than 7%. Steroid levels in the plasma, determined by ELISA, were validated by verifying that serial dilutions were parallel to the standard curve.

milt volume = assay: 14-day in vivo experiment: milt volume / sperm production; design: species or system adult male tilapia (Oreochromis niloticus); conditions: 500 µg/kg BW IP every 48 h; days 7 and 14; six fish per group; versus control
Experimental: as §3

[1] = test system: testicular cell composition; assay: 14-day in vivo experiment: testicular histology and cell composition; design: species or system adult male tilapia (Oreochromis niloticus)
Experimental: as §3
Testes were sampled for histology at 14 days, and testicular cell composition was analyzed. Testes were fixed for 24 h, after which a portion was removed (~5 mm in length) from the center of the larger right testicular lobe for histological processing. Samples were rinsed in distilled water, dehydrated in an alcohol series, cleared in xylene, embedded in paraffin, serially sectioned at 4 μm in the transverse plane, and stained with hematoxylin and eosin using standard histological techniques. Photomicrographs were then taken (4× objective) of 3 randomly chosen sections from each individual for analysis of testicular cell composition. Randomly generated points (n = 50) were overlaid on each photograph (CPCe software), and the cell type underneath each crosshair point was identified. A minimum of 50 points was necessary to adequately determine the percentage of cell types. Cell types were identified based on previous descriptions in this and other related teleost species reviewed in [57], and the following cells were quantified: spermatogonia, spermatids, and spermatozoa (mature sperm). Each cell type was then expressed as a percentage of the total, and averaged across the 3 sections to obtain a mean for each individual.

Tac3R = test system: Tac3R; design: method as in PMID 10992004; conditions: cited from earlier work
Source text: (§4) The effect of NKB/NKF peptides on gonadotropin secretion in fish is already well established. The first indication that NKB is widely expressed in fish species and has a stimulatory reproductive effect was shown in zebrafish, goldfish, and tilapia. […] Osetanant re ...

[2] = test system: Tac3R of the striped bass; design: method as in PMID 28330973; conditions: cited from earlier work
Source text: as §4

CC[C@H](NC(=O)c1c(C)c(-c2ccccc2)nc2ccccc12)c1ccccc1 [SB-222200]
LH plasma levels (LH plasma levels; 100 µg/kg BW IP, 2 h after injection, versus sGnRHa, n = 10): significantly lower
LH levels in plasma, sole IP injection (LH plasma levels; Discussion): decrease in the LH levels in plasma
LH release, combination with sGnRHa (LH plasma levels; antagonist 100 µg/kg BW IP, then sGnRHa 10 µg/kg BW after 0.5 h, n = 10): inhibitory effect on LH release, without any significant change when compared to the sGnRHa; also recorded: drop in LH release
LH plasma levels (abstract) (LH plasma levels; two hours post intraperitoneal injection): decreased LH plasma levels
FSH levels, 2 h post injection, combination with sGnRHa (FSH plasma levels): increased FSH levels
11-KT plasma levels (11-KT plasma levels): significantly delayed the rise of 11-KT levels in plasma
sperm production (milt volume) (milt volume): retained a low sperm production after 7 and 14 days compared to that of the control group
number of spermatozoa ([1]; 500 µg/kg BW IP every 48 h, day 14): significantly reduced the number of spermatozoa
other cells, % of cells ([1]; 500 µg/kg BW IP every 48 h, day 14, Figure 9E, *): 48.38%
spermatid, % of cells ([1]; 500 µg/kg BW IP every 48 h, day 14, control 23.2%, significant): 10%
spermatozoa, % of cells ([1]; 500 µg/kg BW IP every 48 h, day 14, control 23.78%, significant): 6.63%
spermatogonia, % of cells ([1]; 500 µg/kg BW IP every 48 h, day 14, control 32.87%): 35%
spermatogonia, count ([1]; day 14, Figure 9E): 280
other cells, count ([1]; day 14, Figure 9E, *): 387
spermatid, count ([1]; day 14, Figure 9E, *): 80
spermatozoa, count ([1]; day 14, Figure 9E, *): 53
inhibition of NKB binding to the membranes of CHO cells (Tac3R; CHO cells stably expressing the Tac3R receptor): inhibited NKB binding to the membranes of CHO cells
antagonism of NKB-induced Ca^2+ mobilization (Tac3R; HEK 293 cells): antagonized NKB-induced Ca^2+ mobilization in HEK 293 cells
antagonistic effect on the Tac3R of the striped bass [2]: no antagonistic effect

— article PMC8533089, “Characteristics of Neurokinin-3 Receptor and Its Binding Sites by Mutational Analysis” (Biology, 2021)
